Data reported in patent publication US20250280827A1, “An antifungal composition comprising natamycin and at least one insecticide” (priority 2021, published 2025).
Like-named read-outs stand apart in the source and are kept apart here.

Tests used:
Sclerotinia sclerotiorum = assay: Antifungal effect against Sclerotinia sclerotiorum infection on wounded skin of broad bean pods (rot area, Colby synergy); format: in vivo; conditions: 30 h after inoculation, Table 3
Excerpt: (§1) The Colby equation (Colby, 1967. Weeds 15:20-22) calculates the expected antifungal activity (E in %) of a combination comprising more than one active ingredients:
(§2) wherein X and Y are the observed antifungal activities (in %) of the individual active ingredients x and y, respectively. If the observed antifungal activity (O in %) of the combination exceeds the expected antifungal activity (E in %) of the combination and the synergy factor O/E is thus >1.0, the combined application of the active ingredients leads to a synergistic antifungal effect.
• 1) Control (without natamycin and lambda-cyhalothrin) • 2) Natamycin at a level of 15 ppm • 3) Lambda-cyhalothrin (in the product KARATE ZEON® of Syngenta) at a levels of 0.15 ppm, 0.6 ppm, 3 ppm and 15 ppm • 4) Natamycin at a level of 15 ppm combined with lambda-cyhalothrin at levels of 0.15 ppm, 0.6 ppm, 3 ppm or 15 ppm.
Used pathogen: Sclerotinia sclerotiorum.
(§3) Application: The broad bean pods were washed under tap water, and were subsequently surface sterilized by placing them in a 0.1% sodium hypochlorite solution for 5 minutes. The pods were then rinsed with tap water and dried. Transparent plastic containers were prepared by placing a piece of absorbing paper in the container and adding 25 ml of water, one container per treatment was used. The pods were cut in two, and two halve pods were incubated per box. The skin of broad bean pods was damaged with a needle, ø 2 mm and to a depth of about 3 mm into the fruit, with—depending on the size of the pod—2 to 4 wounds per half pod. In total, 6 wounds were incubated per treatment, of which 1 was used as a control. A volume of 20 microliter of a natamycin/insecticide composition, as presented herein above, was applied by pipette to each wound. The treatments were then left to air-dry. Once dried, a mycelium plug of Sclerotinia sclerotiorum was placed upside down on each wound, so that the mycelium was in direct contact with the wound. Per treatment 5 wounds were inoculated with the fungus, while the 6th and last wound was used as negative non-inoculated control. After inoculation, the containers were directly closed with a transparent plastic lid.
All pods were kept at room temperature (20° C.). Wounds of the pods were checked after 30 h of incubation.
Replicates: All treatments for the broad bean pod experiment were performed on two individual pod halves resulting in 5 wounds per treatment, while a sixth wound served as control.
The experiments were performed as described in Example 1.
The experiments were performed as described in Example 1. Assessment of the infection area was 23 h after inoculation. Experiment was performed in 5-fold.
The experiments were performed as described in Example 1. Thiamethoxam belongs to IRAC Group 4. Assessment of the infection area was 31 hours after inoculation. Experiment was performed in 5-fold.
The experiments were performed as described in Example 1. The product SPECTRE® of company (Adama) containing the active ingredient chlorfenapyr belonging to IRAC Group 13 was tested. Assessment of the infection area was 23 hours after inoculation. Experiment was performed in 5-fold.

Fusarium graminerum = format: cell-based; conditions: 6 days after inoculation, Table 10
Excerpt: as §1, §2
(§4) Agar medium was prepared by mixing in a 100 ml Duran bottle 3.9 g of potato dextrose agar (PDA) from Carl-Roth (Carl-Roth GmbH+Co. KG, Karlsruhe, Germany) with 100 ml deionized water and autoclaving the Duran bottle at 120° C. for 15 minutes. After autoclaving, the solution was cooled by putting it in a 48° C. oven for about two hours. Afterward the semi-liquid PDA solution was carefully mixed with natamycin and/or insecticide dosages as specified in Table 5 showing the interaction results on petri dishes. The medium in the Duran bottle was divided over 5 petri dishes (90×15 mm), 20 ml per petri dish by using 25 ml serological pipets (ROTILABO®; Carl-Roth). Each natamycin and/or insecticide treatment was performed in fivefold.
(§5) Fungal spore suspensions were prepared by drenching a fully grown petri dish with sterile water. The fungus was scraped off and filtered through a Miracloth (pore size: 22-25 μm) (Merck KGaA, Darmstadt, Germany; catalogue number: 475855). The number of spores were counted with a hemocytometer and fungal suspension was adjusted to 10^6 spores per ml. Afterward, 5 μl of prepared spore suspension was pipetted on the center of the agar plate. The plates were incubated at 25° C. Measurement of the fungal growth was done using callipers at different time points. Assessment of the infection area was 6 days after inoculation.
(§6) The insecticide levels and the period after which the assessments were made are presented as specified for the different insecticides are presented in Table 5 below. Synergistic calculation was done using the Colby equation. Experiment was performed in 5-fold.
The experiments were performed as described in Example 3. The product KARATE ZEON® of company Syngenta containing the active ingredient lambda-cyhalothrin belonging to IRAC Group 3 was tested. Assessment of the infection area was 6 days after inoculation. Experiment was performed in 5-fold.

Fusarium culmorum = assay: Antifungal effect against Fusarium culmorum on PDA petri dishes (fungal growth area, Colby synergy); format: cell-based; conditions: 3 days after inoculation, Table 11
Excerpt: as §1, §2, §4, §5, §6
The experiments were performed as described in Example 3. Assessment of the infection area was 6 days after inoculation. Experiment was performed in 5-fold.
The experiments were performed as described in Example 3. The product KARATE ZEON® of company Syngenta containing the active ingredient lambda-cyhalothrin belonging to IRAC Group 3 was tested. Assessment of the infection area was 3 days after inoculation. Experiment was performed in 5-fold.

Botrytis cinerea = assay: Antifungal effect against Botrytis cinerea infection on wounded peel of banana fruits (Colby synergy); format: in vivo; conditions: 5 days after inoculation
Excerpt: as §2, §3
The infection area was measured 5 days after inoculation.
A few changes were made for the banana experiments: 5 wounds per banana were made, on each wound 40 microliter of treatments was pipetted. The treatments were then left to air-dry. Once dried, 2 microliter of a freshly prepared inoculum was pipetted on four of the wounds. The inoculum consists of […] potato dextrose broth (PDB) medium containing Botrytis cinerea spores at a concentration of 10^6 spores per ml. The fifth wound was used as negative non-inoculated control. Experiment was performed in 4-fold.
Assessment of the infection area was performed 3 days after inoculation. Experiment was performed in 4-fold.
Imidacloprid was formulated as described in Table 2. Assessment of the efficacy was 5 days after inoculation. Experiment was performed in 4-fold.

[1] = natamycin-insecticide 0-0.15 ppm
[2] = natamycin-insecticide 0-0.6 ppm
[3] = natamycin-insecticide 0-0.1 ppm
[4] = natamycin-insecticide 0-0.2 ppm
[5] = natamycin-insecticide 0-0.5 ppm
[6] = natamycin-insecticide 0-0.05 ppm
[7] = natamycin-insecticide 0:0.004 ppm, Table 12B
[8] = natamycin-insecticide 0:0.01 ppm, Table 12A
[9] = natamycin-insecticide 0:0.04 ppm, Table 12A
[10] = natamycin-insecticide 0:1 ppm, Table 12A

SMILES: CC1(C)[C@H](/C=C(\Cl)C(F)(F)F)[C@@H]1C(=O)O[C@@H](C#N)c1cccc(Oc2ccccc2)c1 [lambda-cyhalothrin, [(R)-cyano-(3-phenoxyphenyl)methyl] (1S,3S)-3-[(Z)-2-chloro-3,3,3-trifluoroprop-1-enyl]-2,2-dimethylcyclopropane-1-carboxylate]
- Avg infected area (Sclerotinia sclerotiorum; [1]): 314.73 mm^2
- Observed antifungal activity (Sclerotinia sclerotiorum; [1]): −0.1%
- Avg infected area (Sclerotinia sclerotiorum; [2]): 325.88 mm^2
- Observed antifungal activity (Sclerotinia sclerotiorum; [2]): −3.7%
- Avg infected area (Sclerotinia sclerotiorum; natamycin-insecticide 0-3 ppm): 350.24 mm^2
- Observed antifungal activity (Sclerotinia sclerotiorum; natamycin-insecticide 0-3 ppm): −11.4%
- Avg infected area (Sclerotinia sclerotiorum; natamycin-insecticide 0-15 ppm): 322.41 mm^2
- Observed antifungal activity (Sclerotinia sclerotiorum; natamycin-insecticide 0-15 ppm): −2.5%
- Avg infected area (Fusarium graminerum; [3]): 4846.2 mm2
- Observed antifungal activity (Fusarium graminerum; [3]): −34.1%
- Avg infected area (Fusarium graminerum; [4]): 5071.1 mm2
- Observed antifungal activity (Fusarium graminerum; [4]): −40.3%
- Avg infected area (Fusarium graminerum; [5]): 4842.3 mm2
- Observed antifungal activity (Fusarium graminerum; [5]): −34%
- Avg infected area (Fusarium graminerum; natamycin-insecticide 0-1 ppm): 4714.2 mm2
- Observed antifungal activity (Fusarium graminerum; natamycin-insecticide 0-1 ppm): −30.4%
- Avg infected area (Fusarium culmorum; [6]): 384.0 mm2
- Observed antifungal activity (Fusarium culmorum; [6]): −5.9%
- Avg infected area (Fusarium culmorum; [3]): 383.9 mm2
- Observed antifungal activity (Fusarium culmorum; [3]): −5.8%
- Avg infected area (Fusarium culmorum; [4]): 370.9 mm2
- Observed antifungal activity (Fusarium culmorum; [4]): −2.2%
- Avg infected area (Fusarium culmorum; [5]): 381.7 mm2
- Observed antifungal activity (Fusarium culmorum; [5]): −5.2%
- Avg infected area (Botrytis cinerea; [7]): 82.4 mm2
- Observed antifungal activity (Botrytis cinerea; [7]): 16.6%
- Avg infected area (Botrytis cinerea; [8]): 38.9 mm2
- Observed antifungal activity (Botrytis cinerea; [8]): 39.0%
- Avg infected area (Botrytis cinerea; [9]): 55.1 mm2
- Observed antifungal activity (Botrytis cinerea; [9]): 13.7%
- Avg infected area (Botrytis cinerea; [10]): 41.8 mm2
- Observed antifungal activity (Botrytis cinerea; [10]): 34.6%
